Measured values reported in patent US20100029706A1, “HYDROGENATED PYRIDO[4,3-b]INDOLES FOR THE TREATMENT OF OXIDATIVE STRESS” (Edison Parmaceuticals, Inc. a Delaware Corporation, priority 2008, published 2010).
Like-named read-outs stand apart in the source and are kept apart here.

Key:
Type in all cases: cell-based
[1] = tested on: Human dermal fibroblasts from Friedreich's Ataxia patients; assay: Rescue of BSO-stressed FRDA fibroblasts (Calcein AM viability); conditions: FRDA fibroblasts GM04078, BSO-stressed, read-out: EC50, protection against Friedreich's ataxia
Experimental: (§1) An initial screen was performed to identify compounds effective for the amelioration of redox disorders. Test samples, 4 reference compounds (Idebenone, decylubiquinone, Trolox and α-tocopherol acetate), and solvent controls were tested for their ability to rescue FRDA fibroblasts stressed by addition of L-buthionine-(S,R)-sulfoximine (BSO), as described in Jauslin et al., Hum. Mol. Genet. 11(24):3055 (2002), Jauslin et al., FASEB J. 17:1972-4 (2003), and International Patent Application WO 2004/003565. […] This specific BSO-mediated cell death can be prevented by administration of antioxidants or molecules involved in the antioxidant pathway, such as α-tocopherol, selenium, or small molecule glutathione peroxidase mimetics. However, antioxidants differ in their potency, i.e. the concentration at which they are able to rescue BSO-stressed FRDA fibroblasts.
MEM (a medium enriched in amino acids and vitamins, catalog no. 1-31F24-I) and Medium 199 (M199, catalog no. 1-21F22-I) with Earle's Balanced Salts, without phenol red, were purchased from Bioconcept. Fetal Calf Serum was obtained from PAA Laboratories. Basic fibroblast growth factor and epidermal growth factor were purchased from PeproTech. Penicillin-streptomycin-glutamine mix, L-buthionine (S,R)-sulfoximine, (+)-α-tocopherol acetate, decylubiquinone, and insulin from bovine pancreas were purchased from Sigma. Trolox (6-hydroxy-2,5,7,8-tetramethylchromane-2-carboxylic acid) was obtained from Fluka. Idebenone was obtained from Chemo Iberica. Calcein AM was purchased from Molecular Probes. Cell culture medium was made by combining 125 ml M199 EBS, 50 ml Fetal Calf Serum, 100 U/ml penicillin, 100 μg/ml streptomycin, 2 mM glutamine, 10 μg/ml insulin, 10 ng/ml EGF, and 10 ng/ml bFGF; MEM EBS was added to make the volume up to 500 ml. A 10 mM BSO solution was prepared by dissolving 444 mg BSO in 200 ml of medium with subsequent filter-sterilization. During the course of the experiments, this solution was stored at +4° C. […]

[2] = tested on: human dermal fibroblasts from Parkinson's Disease patients; assay: Rescue of fibroblasts from Parkinson's Disease patients from oxidative stress (similar to Example A); conditions: PD fibroblasts AG20439, BSO-stressed, read-out: EC50, protection against Parkinson's
Experimental: [Worded in the source for another cell line; this cell line is reported under the same test.] as §1
(§2) Test samples were screened according to the following protocol: • A culture with FRDA fibroblasts was started from a 1 ml vial with approximately 500,000 cells stored in liquid nitrogen. […]
(§3) 100 μl of PBS containing 1.2 μM Calcein AM were then added to each well. […] After that time the PBS was discarded, the plate gently tapped on a paper towel and fluorescence (excitation/emission wavelengths of 485 nm and 525 nm, respectively) was read on a Gemini fluorescence reader. […]

[3] = tested on: human dermal fibroblasts from CoQ10 deficient patients harboring a CoQ2 mutation; assay: Rescue of fibroblasts from CoQ10 deficient patients from oxidative stress (similar to Example A); conditions: BSO-stressed, read-out: EC50, protection against CoQ10
Experimental: [Worded in the source for another cell line; this cell line is reported under the same test.] as §1
Test samples were screened according to the following protocol: • A culture with FRDA fibroblasts was started from a 1 ml vial with approximately 500,000 cells stored in liquid nitrogen. Cells were propagated in 10 cm cell culture dishes by splitting every third day in a ratio of 1:3 until nine plates were available. Once confluent, fibroblasts were harvested. For 54 micro titer plates (96 well-MTP) a total of 14.3 million cells (passage eight) were re-suspended in 480 ml medium, corresponding to 100 μl medium with 3,000 cells/well. The remaining cells were distributed in 10 cm cell culture plates (500,000 cells/plate) for propagation. The plates were incubated overnight at 37° C. in an atmosphere with 95% humidity and 5% CO2 to allow attachment of the cells to the culture plate.
MTP medium (243 μl) was added to a well of the microtiter plate. […]
as §3

[4] = tested on: human dermal fibroblasts from LHON patients; assay: Rescue of fibroblasts from LHON patients from oxidative stress (as Example A); conditions: Fibroblast, LHON fibroblasts GM03858, BSO-stressed, read-out: EC50, protection against LHON
Experimental: [Worded in the source for another cell line; this cell line is reported under the same test.] as §1, §2, §3

Row | SMILES | EC50 [1] [µM] | EC50 [2] [µM] | EC50 [3] [µM] | EC50 ([1]; Homo sapiens) [µM] | EC50 ([3]; Homo sapiens, Fibroblast) [µM] | EC50 ([2]; Homo sapiens, Fibroblast) [µM] | EC50 [4] [µM]
1 | Cc1ccc2c(c1)C1CNCCC1N2 (stereo not drawn) [8-methyl-1,3,4,4a,5,9b-tetrahydro-1H-pyrido[4,3-b]indole] | 4.1 | 3.68 | 7 |  |  |  | 
2 | Cc1ccc2c(c1)c1c(n2CCc2ccc(C)nc2)CCN(C)C1 [dimebolin, 2,8-dimethyl-5-(2-(6-methylpyridin-3-yl)ethyl)-2,3,4,5-tetrahydro-1H-pyrido[4,3-b]indole] |  |  |  | 1.9 | 0.23 |  | 
3 | CN1CCc2c(c3ccccc3n2Cc2ccccc2)C1 [5-benzyl-2-methyl-2,3,4,5-tetrahydro-1H-pyrido[4,3-b]indole] |  |  |  | 4.26 | 3.35 | 0.93 | 1.2
